Read-outs that look alike come from different tables or passages of the source.
Key:
Test in all cases: biochemical
Type in all cases: biochemical
[1] = molecular target: T1, 382 unique human kinases (Homo sapiens, UniProt P07949, V804M); conditions: RET (V804M), 10 uM; for remaining activity at 10 µM: read-out: % Enzyme Activity (relative to DMSO controls)
T1 construct: purchased Reaction Biology (HotSpot contract assay)

[2] = molecular target: T2, 382 unique human kinases (Homo sapiens, UniProt P08581, T1173I); conditions: c-MET (T1173I), compound at 10 uM, duplicate values; for remaining activity at 10 µM: read-out: % Enzyme Activity (relative to DMSO controls)
T2 construct: purchased Reaction Biology (HotSpot contract assay)

[3] = molecular target: T3, 382 unique human kinases (Homo sapiens, UniProt P10721, V654A); conditions: kinase c-Kit (V654A), compound 10 uM; for remaining activity at 10 µM: read-out: % Enzyme Activity (relative to DMSO controls)
T3 construct: purchased Reaction Biology (HotSpot contract assay)
T3 sequence (P10721 26-976 V654A): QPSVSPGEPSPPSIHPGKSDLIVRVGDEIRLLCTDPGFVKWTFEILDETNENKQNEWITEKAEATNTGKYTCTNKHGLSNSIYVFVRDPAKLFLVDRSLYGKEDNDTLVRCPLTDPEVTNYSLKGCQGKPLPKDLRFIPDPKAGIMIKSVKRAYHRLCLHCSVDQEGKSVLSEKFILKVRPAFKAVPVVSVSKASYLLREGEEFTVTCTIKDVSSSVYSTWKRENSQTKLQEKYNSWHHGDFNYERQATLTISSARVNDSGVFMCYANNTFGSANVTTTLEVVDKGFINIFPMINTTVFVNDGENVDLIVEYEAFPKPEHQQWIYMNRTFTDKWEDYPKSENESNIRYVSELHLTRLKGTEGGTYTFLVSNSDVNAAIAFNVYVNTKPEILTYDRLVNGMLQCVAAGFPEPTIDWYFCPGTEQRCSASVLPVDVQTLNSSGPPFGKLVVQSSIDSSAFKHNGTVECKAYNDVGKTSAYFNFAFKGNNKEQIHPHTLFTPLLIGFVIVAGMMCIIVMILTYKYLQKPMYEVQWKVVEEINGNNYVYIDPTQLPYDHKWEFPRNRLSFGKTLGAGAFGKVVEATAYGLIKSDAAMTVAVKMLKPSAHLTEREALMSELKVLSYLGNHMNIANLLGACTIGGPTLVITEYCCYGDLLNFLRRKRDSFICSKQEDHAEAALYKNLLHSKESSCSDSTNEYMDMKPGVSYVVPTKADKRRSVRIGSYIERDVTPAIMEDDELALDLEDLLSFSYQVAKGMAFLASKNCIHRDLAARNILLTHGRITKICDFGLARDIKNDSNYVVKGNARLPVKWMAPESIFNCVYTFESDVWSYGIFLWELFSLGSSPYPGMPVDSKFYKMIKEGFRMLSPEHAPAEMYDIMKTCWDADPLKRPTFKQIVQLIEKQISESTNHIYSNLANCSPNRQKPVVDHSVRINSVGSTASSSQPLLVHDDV

[4] = molecular target: T4, 382 unique human kinases (Homo sapiens, UniProt Q9NY57); conditions: kinase STK32B/YANK2, compound 10 uM; for remaining activity at 10 µM: read-out: % Enzyme Activity (relative to DMSO controls)
T4 construct: purchased Reaction Biology (HotSpot contract assay)
T4 sequence (Q9NY57 whole entry): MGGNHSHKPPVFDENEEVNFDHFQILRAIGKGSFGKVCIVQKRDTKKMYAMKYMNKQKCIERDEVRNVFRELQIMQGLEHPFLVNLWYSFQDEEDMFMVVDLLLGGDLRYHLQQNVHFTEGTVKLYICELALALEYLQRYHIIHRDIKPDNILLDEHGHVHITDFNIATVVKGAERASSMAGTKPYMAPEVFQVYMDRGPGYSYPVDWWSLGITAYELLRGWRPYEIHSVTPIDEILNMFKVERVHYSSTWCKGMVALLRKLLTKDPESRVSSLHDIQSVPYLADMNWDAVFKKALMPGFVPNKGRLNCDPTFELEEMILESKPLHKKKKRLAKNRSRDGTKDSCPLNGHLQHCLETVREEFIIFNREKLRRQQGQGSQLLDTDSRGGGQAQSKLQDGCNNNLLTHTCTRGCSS

[5] = molecular target: T5, 382 unique human kinases (Homo sapiens, UniProt Q86Z02); conditions: HIPK1, compound at 10 uM, duplicate values; for remaining activity at 10 µM: read-out: % Enzyme Activity (relative to DMSO controls)
T5 construct: purchased Reaction Biology (HotSpot contract assay)

[6] = molecular target: T6, 382 unique human kinases (Homo sapiens, UniProt Q9Y4K4); conditions: kinase KHS/MAP4K5, compound 10 uM; for remaining activity at 10 µM: read-out: % Enzyme Activity (relative to DMSO controls)
T6 construct: purchased Reaction Biology (HotSpot contract assay)

[7] = molecular target: T7, 382 unique human kinases (Homo sapiens, UniProt Q9UM73, G1269S); conditions: ALK (G1269S), 10 uM; for remaining activity at 10 µM: read-out: % Enzyme Activity (relative to DMSO controls)
T7 construct: purchased Reaction Biology (HotSpot contract assay)

[8] = molecular target: T8, 382 unique human kinases (Homo sapiens, UniProt P42679); conditions: kinase CTK/MATK, compound 10 uM; for remaining activity at 10 µM: read-out: % Enzyme Activity (relative to DMSO controls)
T8 construct: purchased Reaction Biology (HotSpot contract assay)
T8 sequence (P42679 1-507): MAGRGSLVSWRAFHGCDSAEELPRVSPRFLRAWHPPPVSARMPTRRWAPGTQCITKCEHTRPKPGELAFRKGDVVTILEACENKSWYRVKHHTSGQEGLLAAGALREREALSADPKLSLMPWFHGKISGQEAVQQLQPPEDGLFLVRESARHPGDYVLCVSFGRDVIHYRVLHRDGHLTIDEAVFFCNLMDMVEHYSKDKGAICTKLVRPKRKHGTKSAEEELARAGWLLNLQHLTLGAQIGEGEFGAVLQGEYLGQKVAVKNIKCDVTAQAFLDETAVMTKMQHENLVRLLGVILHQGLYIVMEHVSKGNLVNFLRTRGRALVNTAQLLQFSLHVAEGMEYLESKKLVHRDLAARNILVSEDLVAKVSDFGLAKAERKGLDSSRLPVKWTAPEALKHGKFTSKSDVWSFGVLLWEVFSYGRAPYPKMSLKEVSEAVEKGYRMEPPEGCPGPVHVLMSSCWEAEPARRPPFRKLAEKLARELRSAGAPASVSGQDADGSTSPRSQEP

[9] = molecular target: T9, 382 unique human kinases (Homo sapiens, UniProt P21802, N549H); conditions: kinase FGFR2 (N549H), compound 10 uM; for remaining activity at 10 µM: read-out: % Enzyme Activity (relative to DMSO controls)
T9 construct: purchased Reaction Biology (HotSpot contract assay)

[10] = molecular target: T10, 382 unique human kinases (Homo sapiens, UniProt Q9NYL2); conditions: ZAK/MLTK, [ATP] 50 µM, compound 10 uM; for remaining activity at 10 µM: read-out: % Enzyme Activity (relative to DMSO controls)
T10 construct: purchased Reaction Biology (HotSpot contract assay)

[11] = molecular target: T11, 382 unique human kinases (Homo sapiens, UniProt P06241, Y531F); conditions: FYN (Y531F), [ATP] 5 µM, compound 10 uM; for remaining activity at 10 µM: read-out: % Enzyme Activity (relative to DMSO controls)
T11 construct: purchased Reaction Biology (HotSpot contract assay)

[12] = molecular target: T12, 382 unique human kinases (Homo sapiens, UniProt P51812, I416V); conditions: RSK2 (I416V), [ATP] 10 µM, compound 10 uM; for remaining activity at 10 µM: read-out: % Enzyme Activity (relative to DMSO controls)
T12 construct: purchased Reaction Biology (HotSpot contract assay)
T12 sequence (P51812 whole entry I416V): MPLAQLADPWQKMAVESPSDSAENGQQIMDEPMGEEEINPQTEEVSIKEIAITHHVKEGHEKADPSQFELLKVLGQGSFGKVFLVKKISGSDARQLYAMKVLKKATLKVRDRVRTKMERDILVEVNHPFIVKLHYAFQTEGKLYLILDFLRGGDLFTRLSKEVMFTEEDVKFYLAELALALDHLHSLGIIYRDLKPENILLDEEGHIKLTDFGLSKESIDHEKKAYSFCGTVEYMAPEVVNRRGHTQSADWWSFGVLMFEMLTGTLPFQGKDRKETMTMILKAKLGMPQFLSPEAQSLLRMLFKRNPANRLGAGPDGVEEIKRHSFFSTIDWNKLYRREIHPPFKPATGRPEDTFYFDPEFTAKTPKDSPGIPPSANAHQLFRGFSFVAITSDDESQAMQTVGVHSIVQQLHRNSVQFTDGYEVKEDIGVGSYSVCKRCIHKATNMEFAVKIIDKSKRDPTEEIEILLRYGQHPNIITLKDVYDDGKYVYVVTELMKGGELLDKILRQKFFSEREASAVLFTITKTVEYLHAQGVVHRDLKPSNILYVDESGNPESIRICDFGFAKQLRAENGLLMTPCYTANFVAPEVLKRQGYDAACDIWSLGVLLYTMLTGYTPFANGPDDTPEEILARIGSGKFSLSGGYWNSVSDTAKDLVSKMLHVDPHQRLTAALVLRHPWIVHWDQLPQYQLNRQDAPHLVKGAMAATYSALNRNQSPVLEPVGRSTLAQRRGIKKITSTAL

[13] = molecular target: T13, 382 unique human kinases (Homo sapiens, UniProt Q02763, Y897S); conditions: TIE2 (Y897S), 10 uM; for remaining activity at 10 µM: read-out: % Enzyme Activity (relative to DMSO controls)
T13 construct: purchased Reaction Biology (HotSpot contract assay)

[14] = molecular target: T14, 382 unique human kinases (Homo sapiens, UniProt O75914); conditions: PAK3, 10 uM; for remaining activity at 10 µM: read-out: % Enzyme Activity (relative to DMSO controls)
T14 construct: purchased Reaction Biology (HotSpot contract assay)
T14 sequence (O75914 whole entry): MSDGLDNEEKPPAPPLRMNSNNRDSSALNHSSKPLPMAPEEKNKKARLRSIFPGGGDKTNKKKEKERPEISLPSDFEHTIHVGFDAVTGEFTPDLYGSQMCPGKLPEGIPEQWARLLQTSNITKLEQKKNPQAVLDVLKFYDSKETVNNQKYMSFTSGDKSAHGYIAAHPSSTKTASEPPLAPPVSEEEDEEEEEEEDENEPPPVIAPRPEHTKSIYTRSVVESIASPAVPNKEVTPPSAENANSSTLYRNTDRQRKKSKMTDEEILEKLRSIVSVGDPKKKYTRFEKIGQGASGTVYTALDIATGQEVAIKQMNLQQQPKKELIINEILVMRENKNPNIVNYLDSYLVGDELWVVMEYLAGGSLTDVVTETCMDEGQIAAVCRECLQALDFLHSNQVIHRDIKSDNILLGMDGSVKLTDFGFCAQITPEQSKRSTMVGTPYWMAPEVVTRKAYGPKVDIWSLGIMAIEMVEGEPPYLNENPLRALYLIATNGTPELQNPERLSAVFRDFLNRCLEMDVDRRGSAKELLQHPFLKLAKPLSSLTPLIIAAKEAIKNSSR

[15] = molecular target: T15, 382 unique human kinases (Homo sapiens, UniProt Q9H2X6); conditions: HIPK2, 10 uM; for remaining activity at 10 µM: read-out: % Enzyme Activity (relative to DMSO controls)
T15 construct: purchased Reaction Biology (HotSpot contract assay)

[16] = molecular target: T16, 382 unique human kinases (Homo sapiens, UniProt P07949, Y791F); conditions: [ATP] 15 µM, compound 10 uM, read-out: % Enzyme Activity (relative to DMSO controls)
T16 construct: purchased Reaction Biology (HotSpot contract assay)

[17] = molecular target: T17, 382 unique human kinases (Homo sapiens, UniProt P49761); conditions: CLK3, [ATP] 30 µM, compound 10 uM; for remaining activity at 10 µM: read-out: % Enzyme Activity (relative to DMSO controls)
T17 construct: purchased Reaction Biology (HotSpot contract assay)

[18] = molecular target: T18, 382 unique human kinases (Homo sapiens, UniProt O75116); conditions: ROCK2, 10 uM; for remaining activity at 10 µM: read-out: % Enzyme Activity (relative to DMSO controls)
T18 construct: purchased Reaction Biology (HotSpot contract assay)

[19] = molecular target: T19, 382 unique human kinases (Homo sapiens, UniProt P31751, E17K); conditions: AKT2 (E17K), 10 uM; for remaining activity at 10 µM: read-out: % Enzyme Activity (relative to DMSO controls)
T19 construct: purchased Reaction Biology (HotSpot contract assay)

[20] = molecular target: T20, 382 unique human kinases (Homo sapiens, UniProt Q9H792); conditions: PEAK1, [ATP] 30 µM
T20 construct: purchased Reaction Biology (HotSpot contract assay)
T20 sequence (Q9H792 whole entry): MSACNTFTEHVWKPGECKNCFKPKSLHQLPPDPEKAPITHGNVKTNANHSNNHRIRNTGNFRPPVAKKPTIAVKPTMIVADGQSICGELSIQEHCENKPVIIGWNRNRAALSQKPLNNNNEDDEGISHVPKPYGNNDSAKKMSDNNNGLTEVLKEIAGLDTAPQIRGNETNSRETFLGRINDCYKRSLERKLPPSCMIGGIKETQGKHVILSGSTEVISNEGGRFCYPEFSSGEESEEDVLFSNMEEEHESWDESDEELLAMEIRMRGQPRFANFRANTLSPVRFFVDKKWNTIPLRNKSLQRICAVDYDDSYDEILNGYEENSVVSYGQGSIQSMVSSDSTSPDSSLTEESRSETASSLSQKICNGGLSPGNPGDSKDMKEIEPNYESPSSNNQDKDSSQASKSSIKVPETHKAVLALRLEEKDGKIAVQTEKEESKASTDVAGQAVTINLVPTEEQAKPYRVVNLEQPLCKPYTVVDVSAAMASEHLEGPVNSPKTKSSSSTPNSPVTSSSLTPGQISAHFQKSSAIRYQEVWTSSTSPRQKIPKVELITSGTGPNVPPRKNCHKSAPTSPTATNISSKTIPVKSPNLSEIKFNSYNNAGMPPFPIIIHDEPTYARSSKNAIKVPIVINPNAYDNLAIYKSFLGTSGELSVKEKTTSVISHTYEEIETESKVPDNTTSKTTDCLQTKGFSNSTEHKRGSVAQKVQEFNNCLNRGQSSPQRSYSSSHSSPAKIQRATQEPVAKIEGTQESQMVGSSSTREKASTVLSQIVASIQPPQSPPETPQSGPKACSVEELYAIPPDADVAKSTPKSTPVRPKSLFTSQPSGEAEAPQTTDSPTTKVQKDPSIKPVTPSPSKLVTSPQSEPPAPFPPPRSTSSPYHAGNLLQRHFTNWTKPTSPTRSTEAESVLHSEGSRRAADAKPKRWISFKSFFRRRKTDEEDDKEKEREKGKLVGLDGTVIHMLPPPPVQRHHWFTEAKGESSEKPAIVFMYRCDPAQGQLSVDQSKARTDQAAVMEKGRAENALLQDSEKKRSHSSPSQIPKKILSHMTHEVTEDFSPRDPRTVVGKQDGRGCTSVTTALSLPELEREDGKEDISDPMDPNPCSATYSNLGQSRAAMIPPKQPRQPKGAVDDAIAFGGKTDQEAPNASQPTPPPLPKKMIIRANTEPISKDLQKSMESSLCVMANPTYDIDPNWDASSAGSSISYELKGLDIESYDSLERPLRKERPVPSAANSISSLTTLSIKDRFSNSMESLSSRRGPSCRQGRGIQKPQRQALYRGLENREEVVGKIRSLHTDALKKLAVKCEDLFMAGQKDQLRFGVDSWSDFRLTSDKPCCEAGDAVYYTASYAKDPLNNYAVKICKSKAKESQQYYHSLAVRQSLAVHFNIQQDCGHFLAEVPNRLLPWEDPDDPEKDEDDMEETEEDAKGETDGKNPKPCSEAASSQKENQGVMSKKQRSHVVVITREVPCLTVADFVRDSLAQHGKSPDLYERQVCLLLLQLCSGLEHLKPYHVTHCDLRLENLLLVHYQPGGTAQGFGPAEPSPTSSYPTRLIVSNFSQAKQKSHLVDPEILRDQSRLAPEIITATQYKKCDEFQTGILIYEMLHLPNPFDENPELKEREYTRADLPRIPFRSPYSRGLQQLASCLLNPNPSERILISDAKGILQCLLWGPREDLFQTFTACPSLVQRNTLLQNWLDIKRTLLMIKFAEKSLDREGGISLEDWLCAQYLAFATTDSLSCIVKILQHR

[21] = molecular target: T21, 382 unique human kinases (Homo sapiens, UniProt Q9HAZ1); conditions: CLK4, [ATP] 2.5 µM, compound 10 uM; for remaining activity at 10 µM: read-out: % Enzyme Activity (relative to DMSO controls)
T21 construct: purchased Reaction Biology (HotSpot contract assay)
T21 sequence (Q9HAZ1 whole entry): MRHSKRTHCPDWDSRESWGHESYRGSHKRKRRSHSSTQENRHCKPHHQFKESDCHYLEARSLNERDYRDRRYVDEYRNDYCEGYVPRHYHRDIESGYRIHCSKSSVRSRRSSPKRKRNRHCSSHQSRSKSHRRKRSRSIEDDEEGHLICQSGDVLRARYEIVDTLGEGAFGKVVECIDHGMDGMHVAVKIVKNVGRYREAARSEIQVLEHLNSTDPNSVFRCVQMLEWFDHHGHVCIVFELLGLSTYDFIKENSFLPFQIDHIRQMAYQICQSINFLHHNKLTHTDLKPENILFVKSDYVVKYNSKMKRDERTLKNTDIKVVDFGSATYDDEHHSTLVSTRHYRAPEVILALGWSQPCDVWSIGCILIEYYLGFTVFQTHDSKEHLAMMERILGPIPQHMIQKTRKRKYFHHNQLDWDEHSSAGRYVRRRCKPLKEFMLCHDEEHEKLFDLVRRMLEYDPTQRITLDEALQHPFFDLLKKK

[22] = molecular target: T22, 382 unique human kinases (Homo sapiens, UniProt Q05655); conditions: PKCd, 10 uM; for remaining activity at 10 µM: read-out: % Enzyme Activity (relative to DMSO controls)
T22 construct: purchased Reaction Biology (HotSpot contract assay)

[23] = molecular target: T23, 382 unique human kinases (Homo sapiens, UniProt P10721, V560G); conditions: c-Kit (V560G), [ATP] 20 µM, compound 10 uM; for remaining activity at 10 µM: read-out: % Enzyme Activity (relative to DMSO controls)
T23 construct: purchased Reaction Biology (HotSpot contract assay)
T23 sequence (P10721 26-976 V560G): as the sequence (P10721 26-976 V654A) above, with V535G, A629V counted along it

[24] = molecular target: T24, 382 unique human kinases (Homo sapiens, UniProt Q9UM73, G1269A); conditions: ALK (G1269A), [ATP] 2.5 µM, compound 10 uM; for remaining activity at 10 µM: read-out: % Enzyme Activity (relative to DMSO controls)
T24 construct: purchased Reaction Biology (HotSpot contract assay)

[25] = compound 10 uM, read-out: % Enzyme Activity (relative to DMSO controls)

## CC(C)c1cc(-c2n[nH]c(=O)n2-c2ccc3c(ccn3C)c2)c(O)cc1O [Ganetespib (STA9090)]
[1]
  remaining activity at 10 µM: 81%
[2]
  remaining activity at 10 µM: 102%
[3]
  remaining activity at 10 µM: 81.4%
[4]
  remaining activity at 10 µM: 107%
[5]
  remaining activity at 10 µM: 133%
[6]
  remaining activity at 10 µM: 80.6%
[7]
  remaining activity at 10 µM: 74.6%
[8]
  remaining activity at 10 µM: 80%
[9]
  remaining activity at 10 µM: 79.3%

## CC(C)c1cc(-c2n[nH]c(=O)n2-c2ccc3c(ccn3C)c2)c(O)cc1O [Ganetespib]
[10]
  remaining activity at 10 µM: 48.1%
[11]
  remaining activity at 10 µM: 7.4%
[12]
  remaining activity at 10 µM: 56.7%
[13]
  remaining activity at 10 µM: 98.7%
[14]
  remaining activity at 10 µM: 98.1%
[15]
  remaining activity at 10 µM: 101%
[16]; RET (Y791F)
  remaining activity at 10 µM: 60.9%
[17]
  remaining activity at 10 µM: 39%
[18]
  remaining activity at 10 µM: 105%
[19]
  remaining activity at 10 µM: 108%
[20]; compound 1 uM, read-out: % Enzyme Activity (relative to DMSO controls)
  remaining activity at 1 µM: 43.5%
[20]; [25]
  remaining activity at 10 µM: 10.2%
[21]
  remaining activity at 10 µM: 20.7%
[22]
  remaining activity at 10 µM: 92%
[23]
  remaining activity at 10 µM: 58.9%
[24]
  remaining activity at 10 µM: 55.7%

## CCNC(=O)c1noc(-c2cc(C(C)C)c(O)cc2O)c1-c1ccc(CN2CCOCC2)cc1 [Luminespib]
[10]
  % Enzyme Activity (relative to DMSO controls): 94.35%
  remaining activity at 10 µM: 99.3%
[11]
  % Enzyme Activity (relative to DMSO controls): 23.48%
  remaining activity at 10 µM: 24.2%
[12]
  % Enzyme Activity (relative to DMSO controls): 87.06%
  remaining activity at 10 µM: 88.9%
[13]
  % Enzyme Activity (relative to DMSO controls): 116.81%
  remaining activity at 10 µM: 117%
[14]
  % Enzyme Activity (relative to DMSO controls): 107.82%
  remaining activity at 10 µM: 108%
[15]
  % Enzyme Activity (relative to DMSO controls): 103.59%
  remaining activity at 10 µM: 105%
[16]; RET (Y791F)
  remaining activity at 10 µM: 100%
[16]; […]
  remaining activity at 10 µM: 99.9%
[17]
  % Enzyme Activity (relative to DMSO controls): 45.99%
  remaining activity at 10 µM: 46.6%
[18]
  % Enzyme Activity (relative to DMSO controls): 98.18%
  remaining activity at 10 µM: 99.3%
[19]
  % Enzyme Activity (relative to DMSO controls): 96.63%
  remaining activity at 10 µM: 98%
[20]; compound 10 uM
  % Enzyme Activity (relative to DMSO controls): 29.19%
[20]; [25]
  remaining activity at 10 µM: 30.1%
[21]
  % Enzyme Activity (relative to DMSO controls): 71.69%
  remaining activity at 10 µM: 72.1%
[22]
  % Enzyme Activity (relative to DMSO controls): 95.84%
  remaining activity at 10 µM: 96.4%
[23]
  % Enzyme Activity (relative to DMSO controls): 109.32%
  remaining activity at 10 µM: 111%
[24]
  % Enzyme Activity (relative to DMSO controls): 90.09%
  remaining activity at 10 µM: 90.3%

## CCNC(=O)c1noc(-c2cc(C(C)C)c(O)cc2O)c1-c1ccc(CN2CCOCC2)cc1 [Luminespib (AUY-922)]
[1]
  % Enzyme Activity (relative to DMSO controls): 97.95%
  remaining activity at 10 µM: 98.7%
[2]
  % Enzyme Activity (relative to DMSO controls): 114.35%
  remaining activity at 10 µM: 118%
[3]
  % Enzyme Activity (relative to DMSO controls): 85.21%
  remaining activity at 10 µM: 85.8%
[4]
  % Enzyme Activity (relative to DMSO controls): 88.50%
  remaining activity at 10 µM: 88.8%
[5]
  % Enzyme Activity (relative to DMSO controls): 102.12%
  remaining activity at 10 µM: 104%
[6]
  % Enzyme Activity (relative to DMSO controls): 91.62%
  remaining activity at 10 µM: 93.5%
[7]
  % Enzyme Activity (relative to DMSO controls): 101.62%
  remaining activity at 10 µM: 104%
[8]
  % Enzyme Activity (relative to DMSO controls): 80.99%
  remaining activity at 10 µM: 83.5%
[9]
  % Enzyme Activity (relative to DMSO controls): 106.42%
  remaining activity at 10 µM: 107%

Reference: article PMC8550792, “Evolution of kinase polypharmacology across HSP90 drug discovery” (Cell Chemical Biology, 2021)
